# Measurements: US7012099B2, “Use of substituted 4-amino-1-phenylbutan-2-ol compounds as medicaments” (Gruenenthal GmbH, priority 1999, dated 2006)
# pKi: −log10 of the molar value. Structures can show the parent of a compound that is named as a salt.
# Target: T1, ORL1 receptor (Homo sapiens, UniProt P41146)
# T1 construct: expressed in transfected cells; host or cells: CHO (recombinant CHO-ORL1 cells), membranes
# Experiment: ORL1 receptor binding assay using 3H-nociceptin/orphanin FQ with membranes of recombinant CHO-ORL1 cells
# Conditions: 3H-nociceptin/orphanin FQ 0.5 nM, WGA-SPA beads, one hour at room temperature
# Description: The 4-amino-1-phenylbutan-2-ol compounds of the general formula I have been studied in a receptor binding assay using ^3H-nociceptin/orphanin FQ with membranes of recombinant CHO-ORL1 cells. That test system was carried out according to the method put forward by Ardati et al. (Mol. Pharmacol., 51, 1997, p. 816–824). The concentration of ^3H-nociceptin/orphanin FQ in those tests was 0.5 nM. The binding assays were carried out using in each case 20 μg of membrane protein per 200 μl batch in 50 mM Hepes, pH 7.4, 10 mM MgCl2 and 1 mM EDTA. Binding to the ORL1 receptor was determined using in each case 1 mg of WGA-SPA beads (Amersham-Pharmacia, Freiburg) by incubation of the batch for one hour at room temperature and subsequent measurement in a Trilux scintillation counter (Wallac, Finland). The affinity is given as the Ki value.
# For each of the compounds of Examples 1 to 7, the affinity for the ORL1 receptor was determined according to the mentioned molecular-pharmacological investigations.
# T1 sequence (P41146 whole entry): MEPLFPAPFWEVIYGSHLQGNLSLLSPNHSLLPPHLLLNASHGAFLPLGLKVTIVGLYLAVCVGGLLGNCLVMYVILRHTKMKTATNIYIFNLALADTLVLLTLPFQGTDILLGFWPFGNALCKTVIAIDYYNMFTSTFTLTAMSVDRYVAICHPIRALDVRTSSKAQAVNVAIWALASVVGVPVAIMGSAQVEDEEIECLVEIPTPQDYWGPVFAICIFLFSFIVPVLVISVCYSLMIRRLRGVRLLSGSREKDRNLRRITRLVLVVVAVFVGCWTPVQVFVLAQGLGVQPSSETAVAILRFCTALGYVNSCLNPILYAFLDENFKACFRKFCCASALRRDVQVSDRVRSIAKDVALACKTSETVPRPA
row,SMILES,pKi
1,"CN(C)C(c1ccccc1)C1CCCCC1(O)Cc1ccccc1Cl (stereo not shown) [Example 1, 1-(2-Chlorobenzyl)-2-(dimethylaminophenylmethyl)cyclohexanol hydrochloride]",5.22
2,"CN(C)C(c1ccccc1)C1CCCCC1(O)Cc1cccc(Cl)c1 (stereo not shown) [Example 2, 1-(3-chlorobenzyl)-2-(dimethylaminophenylmethyl)cyclohexanol hydrochloride]",5.68
3,"CN(C)C(c1ccccc1)C1CCCCC1(O)Cc1ccc(Cl)cc1 (stereo not shown) [Example 3, 1-(4-chlorobenzyl)-2-(dimethylaminophenylmethyl)-1-cyclohexanol hydrochloride]",5.77
4,"CN(C)C(c1ccccc1)C1CCCCC1(O)Cc1ccc(F)c(F)c1 (stereo not shown) [Example 4, 1-(3,4-difluorobenzyl)-2-(dimethylaminophenylmethyl)cyclohexanol hydrochloride]",5.72
5,"CN(C)C(c1ccccc1)C1CCCCC1(O)Cc1cccc(C(F)(F)F)c1 (stereo not shown) [Example 5, 2-(dimethylaminophenylmethyl)-1-(3-trifluoromethylbenzyl)cyclohexanol hydrochloride]",6.05
6,"CN(C)C(c1cccs1)C1CCCCC1(O)Cc1cccc(C(F)(F)F)c1 (stereo not shown) [Example 6, 2-(dimethylaminothiophen-2-ylmethyl)-1-(3-trifluoromethylbenzyl)cyclohexanol Hydrochloride]",6.22
7,"CN(C)C(c1ccsc1)C1CCCCC1(O)Cc1cccc(C(F)(F)F)c1 (stereo not shown) [Example 7, 2-(dimethylaminothiophen-3-ylmethyl)-1-(3-trifluoromethylbenzyl)cyclohexanol hydrochloride]",6.48
